# Values of other authors as cited in US20130309325A1, “COMPOSITION AND METHOD FOR PROMOTING JOINT AND BONE HEALTH” (VITAL ANIMAL HEALTH, LLC, priority 2012, published 2013).
# Test system: young racing quarter horses
# [1] = horses with increased plasma silicon concentrations
substance,measurement,setting,value
silicon,average race times,[1],faster average race times
same,distance covered before injury,[1],covered more distance before injury
same,strides completed before injury,[1],completed more strides before injury
same,incidence of bone related injuries,"supplemental silicon, young racing quarter horses",decreased the incidence of bone related injuries
